Results reported in PubChem BioAssay AID1919015 (Molecular Pharmacology Branch, DTP, NCI, 2023).

Tested on: OVCAR-5 complex spheroids with HUVEC/MSC, viability, % test/control
Assay: Anticancer human tumor OVCAR-5 cell line growth inhibition [AhR];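 also: spheroids exposed to compounds for 7 days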;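 as to viability, T/C: 100% = DMSO vehicle control wells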
Conditions: for IC50: curve of first compound; for viability, T/C: stronger effect = lower value
Method in brief: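 Spheroids combined tumor cells with HUVEC endothelial cells and human MSCs as stroma. AhR antagonists were paired with standard or investigational drugs, each dosed in half-log steps down from near clinical Cmax, or from 10 microM where Cmax was unknown.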

[1] = second compound 0.1 µM, first compound 0.0316 µM
[2] = second compound 0.1 µM, first compound 0.1 µM
[3] = second compound 0.1 µM, first compound 0.316 µM
[4] = second compound 0.1 µM, first compound 1 µM
[5] = second compound 0.1 µM, first compound 3.16 µM
[6] = second compound 0.1 µM, first compound 10 µM
[7] = second compound 0.316 µM, first compound 0.0316 µM
[8] = second compound 0.316 µM, first compound 0.1 µM
[9] = second compound 0.316 µM, first compound 0.316 µM
[10] = second compound 0.316 µM, first compound 1 µM
[11] = second compound 0.316 µM, first compound 3.16 µM
[12] = second compound 0.316 µM, first compound 10 µM
[13] = second compound 1 µM, first compound 0.0316 µM
[14] = second compound 1 µM, first compound 0.1 µM
[15] = second compound 1 µM, first compound 0.316 µM
[16] = second compound 1 µM, first compound 1 µM
[17] = second compound 1 µM, first compound 3.16 µM
[18] = second compound 1 µM, first compound 10 µM
[19] = second compound 3.16 µM, first compound 0.0316 µM
[20] = second compound 3.16 µM, first compound 0.1 µM
[21] = second compound 3.16 µM, first compound 0.316 µM
[22] = second compound 3.16 µM, first compound 1 µM
[23] = second compound 3.16 µM, first compound 3.16 µM
[24] = second compound 3.16 µM, first compound 10 µM
[25] = second compound 10 µM, first compound 0.0316 µM
[26] = second compound 10 µM, first compound 0.1 µM
[27] = second compound 10 µM, first compound 0.316 µM
[28] = second compound 10 µM, first compound 1 µM
[29] = second compound 10 µM, first compound 3.16 µM
[30] = second compound 10 µM, first compound 10 µM

Structure (SMILES): CC1(C)CCC(CN2CCN(c3ccc(C(=O)NS(=O)(=O)c4ccc(NCC5CCOCC5)c([N+](=O)[O-])c4)c(Oc4cnc5[nH]ccc5c4)c3)CC2)=C(c2ccc(Cl)cc2)C1 + Cc1cncc(-c2nc(NCCc3c[nH]c4ccccc34)c3ncn(C(C)C)c3n2)c1
- IC50 (second compound 0.1 µM): > 10000 nM
- IC50 (second compound 0.316 µM): > 10000 nM
- IC50 (second compound 1 µM): > 10000 nM
- IC50 (second compound 3.16 µM): > 10000 nM
- IC50 (second compound 10 µM): < 31.6 nM
- viability, T/C [1]: 105%
- viability, T/C [2]: 103%
- viability, T/C [3]: 106%
- viability, T/C [4]: 106%
- viability, T/C [5]: 109%
- viability, T/C [6]: 90.1%
- viability, T/C [7]: 101%
- viability, T/C [8]: 103%
- viability, T/C [9]: 102%
- viability, T/C [10]: 105%
- viability, T/C [11]: 109%
- viability, T/C [12]: 89.5%
- viability, T/C [13]: 101%
- viability, T/C [14]: 100%
- viability, T/C [15]: 102%
- viability, T/C [16]: 103%
- viability, T/C [17]: 104%
- viability, T/C [18]: 86.8%
- viability, T/C [19]: 81.5%
- viability, T/C [20]: 85.6%
- viability, T/C [21]: 86.3%
- viability, T/C [22]: 83.4%
- viability, T/C [23]: 88.5%
- viability, T/C [24]: 75.3%
- viability, T/C [25]: 4.28%
- viability, T/C [26]: 4.26%
- viability, T/C [27]: 5.72%
- viability, T/C [28]: 3.52%
- viability, T/C [29]: 4.43%
- viability, T/C [30]: 9.47%

Structure (SMILES): CCN(c1cc(-c2ccc(CN3CCOCC3)cc2)cc(C(=O)NCc2c(C)cc(C)[nH]c2=O)c1C)C1CCOCC1 + Cc1cncc(-c2nc(NCCc3c[nH]c4ccccc34)c3ncn(C(C)C)c3n2)c1
- IC50 (second compound 0.1 µM): > 3000 nM
- IC50 (second compound 0.316 µM): > 3000 nM
- IC50 (second compound 1 µM): > 3000 nM
- IC50 (second compound 3.16 µM): > 3000 nM
- IC50 (second compound 10 µM): < 9.49 nM
- viability, T/C (second compound 0.1 µM, first compound 0.00949 µM): 101%
- viability, T/C (second compound 0.1 µM, first compound 0.03 µM): 101%
- viability, T/C (second compound 0.1 µM, first compound 0.0949 µM): 98.9%
- viability, T/C (second compound 0.1 µM, first compound 0.3 µM): 97.3%
- viability, T/C (second compound 0.1 µM, first compound 0.949 µM): 97.1%
- viability, T/C (second compound 0.1 µM, first compound 3 µM): 96.7%
- viability, T/C (second compound 0.316 µM, first compound 0.00949 µM): 102%
- viability, T/C (second compound 0.316 µM, first compound 0.03 µM): 100%
- viability, T/C (second compound 0.316 µM, first compound 0.0949 µM): 96.5%
- viability, T/C (second compound 0.316 µM, first compound 0.3 µM): 97.8%
- viability, T/C (second compound 0.316 µM, first compound 0.949 µM): 94.7%
- viability, T/C (second compound 0.316 µM, first compound 3 µM): 98.2%
- viability, T/C (second compound 1 µM, first compound 0.00949 µM): 93.4%
- viability, T/C (second compound 1 µM, first compound 0.03 µM): 93.4%
- viability, T/C (second compound 1 µM, first compound 0.0949 µM): 97%
- viability, T/C (second compound 1 µM, first compound 0.3 µM): 90.6%
- viability, T/C (second compound 1 µM, first compound 0.949 µM): 89.7%
- viability, T/C (second compound 1 µM, first compound 3 µM): 89.6%
- viability, T/C (second compound 3.16 µM, first compound 0.00949 µM): 78.5%
- viability, T/C (second compound 3.16 µM, first compound 0.03 µM): 79%
- viability, T/C (second compound 3.16 µM, first compound 0.0949 µM): 80.2%
- viability, T/C (second compound 3.16 µM, first compound 0.3 µM): 75.3%
- viability, T/C (second compound 3.16 µM, first compound 0.949 µM): 72.7%
- viability, T/C (second compound 3.16 µM, first compound 3 µM): 70.4%
- viability, T/C (second compound 10 µM, first compound 0.00949 µM): 14.8%
- viability, T/C (second compound 10 µM, first compound 0.03 µM): 16%
- viability, T/C (second compound 10 µM, first compound 0.0949 µM): 15.4%
- viability, T/C (second compound 10 µM, first compound 0.3 µM): 6.52%
- viability, T/C (second compound 10 µM, first compound 0.949 µM): 2.63%
- viability, T/C (second compound 10 µM, first compound 3 µM): 1.33%

Structure (SMILES): COc1cc(Nc2ncc3c(n2)-c2ccc(Cl)cc2C(c2c(F)cccc2OC)=NC3)ccc1C(=O)O + Cc1cncc(-c2nc(NCCc3c[nH]c4ccccc34)c3ncn(C(C)C)c3n2)c1
- IC50 (second compound 0.1 µM): 2650 nM
- IC50 (second compound 0.316 µM): 3040 nM
- IC50 (second compound 1 µM): 2740 nM
- IC50 (second compound 3.16 µM): 875 nM
- IC50 (second compound 10 µM): < 31.6 nM
- viability, T/C [1]: 88.1%
- viability, T/C [2]: 83.6%
- viability, T/C [3]: 63.6%
- viability, T/C [4]: 58%
- viability, T/C [5]: 49.2%
- viability, T/C [6]: 45.6%
- viability, T/C [7]: 87.3%
- viability, T/C [8]: 80.9%
- viability, T/C [9]: 63.3%
- viability, T/C [10]: 59.9%
- viability, T/C [11]: 50.2%
- viability, T/C [12]: 42.5%
- viability, T/C [13]: 85.5%
- viability, T/C [14]: 79%
- viability, T/C [15]: 60.5%
- viability, T/C [16]: 59.5%
- viability, T/C [17]: 48.3%
- viability, T/C [18]: 44.1%
- viability, T/C [19]: 69.8%
- viability, T/C [20]: 68.6%
- viability, T/C [21]: 56.7%
- viability, T/C [22]: 49.8%
- viability, T/C [23]: 46.9%
- viability, T/C [24]: 44%
- viability, T/C [25]: 9.88%
- viability, T/C [26]: 9.9%
- viability, T/C [27]: 8.88%
- viability, T/C [28]: 9.21%
- viability, T/C [29]: 8.92%
- viability, T/C [30]: 12.2%

Structure (SMILES): Cn1ncnc1C1c2n[nH]c(=O)c3cc(F)cc(c23)NC1c1ccc(F)cc1 (stereo not given) + Cc1cncc(-c2nc(NCCc3c[nH]c4ccccc34)c3ncn(C(C)C)c3n2)c1
- IC50 (second compound 0.1 µM): > 100 nM
- IC50 (second compound 0.316 µM): > 100 nM
- IC50 (second compound 1 µM): > 100 nM
- IC50 (second compound 3.16 µM): > 100 nM
- IC50 (second compound 10 µM): < 0.316 nM
- viability, T/C (second compound 0.1 µM, first compound 0.000316 µM): 99.4%
- viability, T/C (second compound 0.1 µM, first compound 0.001 µM): 102%
- viability, T/C (second compound 0.1 µM, first compound 0.00316 µM): 103%
- viability, T/C (second compound 0.1 µM, first compound 0.01 µM): 104%
- viability, T/C [1]: 101%
- viability, T/C [2]: 99.2%
- viability, T/C (second compound 0.316 µM, first compound 0.000316 µM): 101%
- viability, T/C (second compound 0.316 µM, first compound 0.001 µM): 104%
- viability, T/C (second compound 0.316 µM, first compound 0.00316 µM): 100%
- viability, T/C (second compound 0.316 µM, first compound 0.01 µM): 99.2%
- viability, T/C [7]: 99.4%
- viability, T/C [8]: 95.2%
- viability, T/C (second compound 1 µM, first compound 0.000316 µM): 98.1%
- viability, T/C (second compound 1 µM, first compound 0.001 µM): 97.9%
- viability, T/C (second compound 1 µM, first compound 0.00316 µM): 95.8%
- viability, T/C (second compound 1 µM, first compound 0.01 µM): 96.4%
- viability, T/C [13]: 94.6%
- viability, T/C [14]: 93.6%
- viability, T/C (second compound 3.16 µM, first compound 0.000316 µM): 85%
- viability, T/C (second compound 3.16 µM, first compound 0.001 µM): 87.3%
- viability, T/C (second compound 3.16 µM, first compound 0.00316 µM): 86.3%
- viability, T/C (second compound 3.16 µM, first compound 0.01 µM): 87.7%
- viability, T/C [19]: 83.4%
- viability, T/C [20]: 89.5%
- viability, T/C (second compound 10 µM, first compound 0.000316 µM): 26.6%
- viability, T/C (second compound 10 µM, first compound 0.001 µM): 28.5%
- viability, T/C (second compound 10 µM, first compound 0.00316 µM): 30.9%
- viability, T/C (second compound 10 µM, first compound 0.01 µM): 27.2%
- viability, T/C [25]: 23%
- viability, T/C [26]: 30.7%

Structure (SMILES): NS(=O)(=O)OCC1CC(n2ccc3c(NC4CCc5ccccc54)ncnc32)CC1O (stereo not given) + Cc1cncc(-c2nc(NCCc3c[nH]c4ccccc34)c3ncn(C(C)C)c3n2)c1
- IC50 (second compound 0.1 µM): 152 nM
- IC50 (second compound 0.316 µM): 114 nM
- IC50 (second compound 1 µM): 91.8 nM
- IC50 (second compound 3.16 µM): 98 nM
- IC50 (second compound 10 µM): < 31.6 nM
- viability, T/C [1]: 86.4%
- viability, T/C [2]: 57.5%
- viability, T/C [3]: 37.2%
- viability, T/C [4]: 17.6%
- viability, T/C [5]: 13.1%
- viability, T/C [6]: 12.2%
- viability, T/C [7]: 78%
- viability, T/C [8]: 51.5%
- viability, T/C [9]: 33%
- viability, T/C [10]: 16.5%
- viability, T/C [11]: 13.6%
- viability, T/C [12]: 12.3%
- viability, T/C [13]: 69.7%
- viability, T/C [14]: 47.4%
- viability, T/C [15]: 31.6%
- viability, T/C [16]: 16.6%
- viability, T/C [17]: 11.3%
- viability, T/C [18]: 10.7%
- viability, T/C [19]: 64%
- viability, T/C [20]: 50.2%
- viability, T/C [21]: 22.7%
- viability, T/C [22]: 10.7%
- viability, T/C [23]: 6.17%
- viability, T/C [24]: 4.99%
- viability, T/C [25]: 3.84%
- viability, T/C [26]: 3.41%
- viability, T/C [27]: 2.74%
- viability, T/C [28]: 2.03%
- viability, T/C [29]: 0.83%
- viability, T/C [30]: 0.48%
